Results as given in publication PMC6917776, “Discovery of a chemical probe for PRDM9” (Nature Communications, 2019).
Values joined by “and” are separate entries in the source; they are usually repeats but may differ in a detail not shown here. Identical values can stand only once. Like-named read-outs stand apart in the source and are kept apart here.

Biological target: T1, PRDM7 (Homo sapiens, UniProt Q9NQW5)
T1 sequence (Q9NQW5 1-492): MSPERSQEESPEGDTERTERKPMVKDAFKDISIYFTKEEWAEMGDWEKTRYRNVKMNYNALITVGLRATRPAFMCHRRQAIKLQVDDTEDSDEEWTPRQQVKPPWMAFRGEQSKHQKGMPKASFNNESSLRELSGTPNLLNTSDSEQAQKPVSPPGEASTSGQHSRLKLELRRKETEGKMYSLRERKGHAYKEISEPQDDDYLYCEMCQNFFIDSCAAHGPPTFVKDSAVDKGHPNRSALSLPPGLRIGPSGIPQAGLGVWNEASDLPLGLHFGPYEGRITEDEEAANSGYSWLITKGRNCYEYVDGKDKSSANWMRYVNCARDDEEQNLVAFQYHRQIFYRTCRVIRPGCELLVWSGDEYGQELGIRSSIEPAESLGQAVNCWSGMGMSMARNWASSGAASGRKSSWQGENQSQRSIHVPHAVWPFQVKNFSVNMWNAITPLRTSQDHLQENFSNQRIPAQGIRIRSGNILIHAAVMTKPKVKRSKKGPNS
Assay: PRDM7 methyltransferase activity assay (3H-SAM scintillation proximity assay)
Format: biochemical
Method: Methyltransferase activity assays for PRDM9 (amino acids: 195–415) were performed by monitoring the incorporation of tritium-labeled methyl group from ^3H-SAM to H3 (1–25) peptide using scintillation proximity assay (SPA). The enzymatic reactions were performed at 23 °C with 30 min incubation in 20 mM Tris-HCl (pH 7.5), 5 mM DTT, 0.01% Triton X-100 and 1% DMSO containing 71 μM of SAM (5 μM of ^3H-SAM), 4 μM of biotinylated H3 (1–25) peptide and 5 nM of PRDM9. For PRDM7, reactions were performed at 23 °C with 90 min incubation in 20 mM BTP pH 9.0, 5 mM DTT, 0.01% Triton X-100 and 1% DMSO containing 900 μM of SAM (5 μM of ^3H-SAM), 4 μM of biotinylated H3 (1–25) peptide and 100 nM of enzyme. Compounds were titrated from 3 nM to 50 μM and from 200 nM to 200 μM for PRDM9 and PRDM7, respectively. To stop the reactions, 10 μL of 7.5 M guanidine hydrochloride was added to 10 μL of reaction mixture, followed by 60 μL of buffer (20 mM Tris, pH 8.0), mixed, and transferred to a 384-well streptavidin coated Flash-plate. After mixing, the mixtures in Flash-plate were incubated for 2 h, and the CPM counts were measured using TopCount plate reader. All enzymatic reactions were performed in triplicate, and IC50 values were determined by fitting the data to Four Parameter Logistic equation using the GraphPad Prism software.

[1] = 0.195312 µM compound, 0.195312 µM
[2] = 0.195312 µM compound, read-out: PRDM7-Activity %, Average (n=3)
[3] = 0.195312 µM compound, read-out: PRDM7-Activity %, single experiments
[4] = 0.390625 µM compound, 0.390625 µM
[5] = 0.390625 µM compound, read-out: PRDM7-Activity %, Average (n=3)
[6] = 0.390625 µM compound, read-out: PRDM7-Activity %, single experiments
[7] = 0.78125 µM compound, 0.78125 µM
[8] = 0.78125 µM compound, read-out: PRDM7-Activity %, Average (n=3)
[9] = 0.78125 µM compound, read-out: PRDM7-Activity %, single experiments
[10] = 1.5625 µM compound, read-out: PRDM7-Activity %, Average (n=3)
[11] = 1.5625 µM compound, read-out: PRDM7-Activity %, single experiments
[12] = 3.125 µM compound, read-out: PRDM7-Activity %, Average (n=3)
[13] = 3.125 µM compound, read-out: PRDM7-Activity %, single experiments
[14] = 6.25 µM compound, read-out: PRDM7-Activity %, Average (n=3)
[15] = 6.25 µM compound, read-out: PRDM7-Activity %, single experiments
[16] = 12.5 µM compound, read-out: PRDM7-Activity %, Average (n=3)
[17] = 12.5 µM compound, read-out: PRDM7-Activity %, single experiments
[18] = 25 µM compound, read-out: PRDM7-Activity %, Average (n=3)
[19] = 25 µM compound, read-out: PRDM7-Activity %, single experiments
[20] = 50 µM compound, read-out: PRDM7-Activity %, Average (n=3)
[21] = 50 µM compound, read-out: PRDM7-Activity %, single experiments
[22] = 100 µM compound, read-out: PRDM7-Activity %, Average (n=3)
[23] = 100 µM compound, read-out: PRDM7-Activity %, single experiments
[24] = 200 µM compound, read-out: PRDM7-Activity %, Average (n=3)

SMILES | PRDM7-Activity %, single experiments [1] | activity at 0.195312 µM [2] | activity at 0.195312 µM [3] | PRDM7-Activity %, single experiments [4] | activity at 0.390625 µM [5] | activity at 0.390625 µM [6] | PRDM7-Activity %, single experiments [7] | activity at 0.78125 µM [8] | activity at 0.78125 µM [9] | PRDM7-Activity %, single experiments (1.5625 µM compound, 1.5625 µM) | activity at 1.5625 µM [10] | activity at 1.5625 µM [11] | PRDM7-Activity %, single experiments (3.125 µM compound, 3.125 µM) | activity at 3.125 µM [12] | activity at 3.125 µM [13] | PRDM7-Activity %, single experiments (6.25 µM compound, 6.25 µM) | activity at 6.25 µM [14] | activity at 6.25 µM [15] | PRDM7-Activity %, single experiments (12.5 µM compound, 12.5 µM) | activity at 12.5 µM [16] | other results
COc1cc(OC)cc(-c2noc(N3CCN(C)C4(CCN(c5ccccc5)CC4)C3)n2)c1 [MRK-740-NC] | 100.2% and 97.4% | 99.4% | 101% | 100.3% and 102.2% | 102% | 104% | 94.78% and 94.12% | 92.2% | 87.6% | 107.5% and 100.6% | 102% | 98.2% | 102.8% and 99.77% | 97.8% | 90.9% | 83.67% and 87.1% | 90.6% | 101% | 102.7% and 91.72% | 94.2% | PRDM7 inhibition (in words): no significant PRDM7 inhibition; activity at 12.5 µM [17]: 88.2%; PRDM7-Activity %, single experiments (25 µM compound, 25 µM): 99.4% and 100.5%; activity at 25 µM [18]: 101%; activity at 25 µM [19]: 105%; PRDM7-Activity %, single experiments (50 µM compound, 50 µM): 93.21% and 92.53%; activity at 50 µM [20]: 93%; activity at 50 µM [21]: 93.3%; PRDM7-Activity %, single experiments (100 µM compound, 100 µM): 98.05% and 87.79%; activity at 100 µM [22]: 89.8%; activity at 100 µM [23]: 83.5%; PRDM7-Activity %, single experiments (200 µM compound, 200 µM): 98.85% and 73.14% and 89.14%; activity at 200 µM [24]: 87%
COc1cc(OC)cc(-c2noc(N3CCN(C)C4(CCN(c5ccnc(C)c5)CC4)C3)n2)c1 [MRK-740] | 104.6% and 100.9% | 103% | 104% | 104.3% and 107.1% | 105% | 103% | 95.5% and 104.5% | 99.4% | 98.3% | 97.86% and 90.81% | 94.9% | 96.1% | 99.32% and 89.67% | 95.4% | 97.1% | 81.54% and 82.05% | 81.6% | 81.2% | 70.89% and 77.38% | 74.1% | activity at 12.5 µM [17]: 74%; PRDM7-Activity %, single experiments (25 µM compound, 25 µM): 64.86% and 73.52%; activity at 25 µM [18]: 69.3%; activity at 25 µM [19]: 69.4%; activity at 50 µM [20]: 46.3%; activity at 50 µM [21]: 47.1%; PRDM7-Activity %, single experiments (100 µM compound, 100 µM): 28% and 33.38%; activity at 100 µM [22]: 30%; activity at 100 µM [23]: 28.6%; PRDM7-Activity %, single experiments (200 µM compound, 200 µM): 12.96% and 18.48%; activity at 200 µM [24]: 15.8%; activity at 200 µM (200 µM compound, read-out: PRDM7-Activity %, single experiments): 16.1%; IC50 (biotinylated H3 (1–25) peptide): 45 ± 7 µM
